In paper PMC3707514 (Chemical research in toxicology, 2013):
Values belong to the compound of their own block, whether it stands above or below them.

What was measured:
P450 2S1 [1] = target: T1, P450 2S1 (Homo sapiens, UniProt Q96SQ9); type: biochemical
T1 sequence (Q96SQ9 1-504): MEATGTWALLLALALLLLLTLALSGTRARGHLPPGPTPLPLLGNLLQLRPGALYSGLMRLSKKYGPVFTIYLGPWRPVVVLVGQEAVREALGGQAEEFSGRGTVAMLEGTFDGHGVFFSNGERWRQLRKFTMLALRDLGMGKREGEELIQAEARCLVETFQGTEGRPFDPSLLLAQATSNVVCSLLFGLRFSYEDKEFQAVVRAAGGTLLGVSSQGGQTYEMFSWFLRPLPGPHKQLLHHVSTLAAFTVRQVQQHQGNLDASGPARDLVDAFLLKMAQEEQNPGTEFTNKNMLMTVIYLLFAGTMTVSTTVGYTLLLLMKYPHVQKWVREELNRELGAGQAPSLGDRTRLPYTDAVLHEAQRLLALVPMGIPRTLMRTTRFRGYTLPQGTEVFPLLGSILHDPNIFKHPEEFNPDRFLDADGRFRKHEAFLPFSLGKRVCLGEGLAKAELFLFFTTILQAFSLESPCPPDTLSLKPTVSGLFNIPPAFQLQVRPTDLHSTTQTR

P450 2S1 [2] = target: T1, P450 2S1; type: biochemical; remark: listed apart in the source
P450 2S1 [3] = target: T1, P450 2S1; experiment: UV-visible difference spectral titration of purified P450 2S1; type: binding
P450 2S1 [4] = target: T1, P450 2S1; type: biochemical; remark: listed apart in the source

SMILES: ONc1ccc2ccccc2c1 [2-HONH-naphthalene]
anaerobic reduction to 2-naphthylamine by purified P450 2S1, HPLC, minus-P450 co (P450 2S1 [1]): 2.4 ± 0.8 min⁻¹

SMILES: ONc1ccc2c(c1)Cc1ccccc1-2 [2-HONH-fluorene]
anaerobic reduction to 2-aminofluorene by purified P450 2S1, HPLC, minus-P450 co (P450 2S1 [2]): 0.34 ± 0.12 min⁻¹

Kd (P450 2S1 [3]): 30 ± 10 µM
SMILES: Cc1cc(-c2nc3cc(F)ccc3s2)ccc1NO [HONH-5F 203, 2-(4-hydroxylamino-3-methylphenyl)-5-fluorobenzothiazole]

SMILES: ONc1ccc(-c2ccccc2)cc1 [4-HONH-biphenyl]
anaerobic reduction to 4-aminobiphenyl by purified P450 2S1, HPLC, minus-P450 co (P450 2S1 [4]): 0.18 ± 0.01 min⁻¹
